Test results from article PMC11892739, “Site-specific molecular glues for the 14-3-3/Tau pS214 protein–protein interaction via reversible covalent imine tethering” (RSC Medicinal Chemistry, 2025).

Molecular target: T1, 14-3-3ζ/CFTR peptide (Homo sapiens, UniProt P63104)
T1 construct: made in house; host or cells: NiCo21 (DE3) E. coli
Assay: FA peptide screen, 14-3-3ζ titration to client peptide and compound: CFTR
Type: binding
Details: 250 μM compound, 100 nM peptide; +1 Val
Method: Since the hub protein 14-3-3 binds to hundreds of phosphoprotein partners, selectivity of PPI stabilization is a major challenge. The interplay of chemical reactivity, and the topology and functionality of the composite binding pocket shaped by 14-3-3 and Tau potentially provide entries towards selective stabilization. […] Here, 14-3-3ζ was titrated to a constant concentration of client peptide (100 nM) and compound (250 μM) to determine the SF250μM values for the particular 14-3-3 PPI. A variety of 14-3-3 binding proteins was represented in this client panel whereby the size and hydrophobicity of the +1 amino acid were varied. […]
chromatography (HisTrap high performance cartridges, Cytiva). […] Dialyzed protein was concentrated to ∼40 mg/mL, analyzed by Q -Tof LC/MS, and aliquots were flash -frozen for storage at −80 °C. […]
0.1% (v/v) Tween20, 0.1% (w/v) BSA). […] Measurements were performed directly after plate preparation, using a Tecan SPARK plate reader at room temperature ( λex: 485±20 nm; λem: 535±25 nm; mirror: automatic; flashes: 30; settle time: 1 ms; gain: optimal; Z -position: calculated from well). […] All data were analyzed using GraphPad Prism (10.0.1) and fitted with a four -parameter logistic model (4PL) to determine binding affinities (dissociation constant, KD). […]
Fluorescence Anisotropy – peptide screen […]

T1 sequence (P63104 whole entry): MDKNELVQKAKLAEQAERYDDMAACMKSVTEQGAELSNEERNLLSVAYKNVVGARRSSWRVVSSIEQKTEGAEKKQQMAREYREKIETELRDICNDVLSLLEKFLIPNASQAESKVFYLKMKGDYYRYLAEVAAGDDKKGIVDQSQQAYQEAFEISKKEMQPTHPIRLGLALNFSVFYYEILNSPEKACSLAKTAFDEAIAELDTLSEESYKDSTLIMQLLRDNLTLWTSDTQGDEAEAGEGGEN
T1 sequence (P13569 747-774 partner): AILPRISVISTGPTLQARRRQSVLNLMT

With `CCc1ccc(-c2nccn2-c2ccc(C=O)c(Br)c2)cc1` [Compound 18] the “stabilization of 14-3-3/CFTR peptide (in words)” value was “minor off-target effects”.
